Like-named read-outs stand apart in the source and are kept apart here.
Molecular target: T1, human β3-AR (Homo sapiens, UniProt P13945)
T1 construct: expressed in transfected cells; host or cells: CHO (Chinese hamster ovary) cells, stably transfected
Assay: cAMP functional agonist assay (LANCE TR-FRET) in CHO cells expressing cloned human β3-AR
Type: cell-based
Details: for Fold drop in potency vs. 2-chloropyridine analog: EC50 of comparative example divided by EC50 of corresponding 2-chloropyridine compound; for Human β3-AR Agonist Activity (%): percent maximum activation relative to isoproterenol

[1] = CHO cells stably expressing cloned human β3-adrenoceptor, cAMP release, read-out: Human β3-AR Agonism EC50

T1 sequence (P13945 whole entry): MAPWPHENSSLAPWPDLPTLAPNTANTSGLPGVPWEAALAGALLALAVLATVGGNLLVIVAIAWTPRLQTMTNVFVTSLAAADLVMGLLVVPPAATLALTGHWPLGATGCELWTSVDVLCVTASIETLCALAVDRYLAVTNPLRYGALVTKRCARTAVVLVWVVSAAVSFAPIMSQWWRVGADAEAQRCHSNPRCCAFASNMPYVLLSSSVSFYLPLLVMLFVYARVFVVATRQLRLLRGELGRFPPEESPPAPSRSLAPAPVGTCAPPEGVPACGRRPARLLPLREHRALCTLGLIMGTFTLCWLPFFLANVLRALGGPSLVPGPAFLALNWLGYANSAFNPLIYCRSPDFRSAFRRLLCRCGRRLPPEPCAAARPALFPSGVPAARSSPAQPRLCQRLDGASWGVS

| Compound | EC50 [1] | Fold drop in potency vs. 2-chloropyridine analog | Human β3-AR Agonist Activity (%) | EC50 |
| --- | --- | --- | --- | --- |
| CN(Cc1cccnc1)C(=O)c1ccc(C[C@@H]2CC[C@H]([C@H](O)c3cccnc3)N2)cc1 [Example 21-H, 4-(((2S,5R)-5-((R)-hydroxy(pyridin-3-yl)methyl)pyrrolidin-2-yl)methyl)-N-methyl-N-(pyridin-3-ylmethyl)benzamide] | 38 nM | 8.8 fold | 85% | – |
| CN(Cc1cccnc1)C(=O)c1ccc(C[C@@H]2CC[C@H]([C@H](O)c3ccc(C4CC4)nc3)N2)cc1 [Example 21-I, 4-(((2S,5R)-5-((R)-(6-cyclopropylpyridin-3-yl)(hydroxy)methyl)pyrrolidin-2-yl)methyl)-N-methyl-N-(pyridin-3-ylmethyl)benzamide] | 19 nM | 4.4 fold | 71% | – |
| CC(=O)c1ccc([C@@H](O)[C@H]2CC[C@@H](Cc3ccc(C(=O)N(C)Cc4cccnc4)cc3)N2)cn1 [Example 21-J, 4-(((2S,5R)-5-((R)-(6-acetylpyridin-3-yl)(hydroxy)methyl)pyrrolidin-2-yl)methyl)-N-methyl-N-(pyridin-3-ylmethyl)benzamide] | ≥ 10000 nM | >2300 fold | 38% | – |
| CN(Cc1cccnc1)C(=O)c1ccc(C[C@@H]2CC[C@H]([C@H](O)c3ccc(C(N)=O)nc3)N2)cc1 [Example 21-K, 5-((R)-hydroxy((2R,5S)-5-(4-(methyl(pyridin-3-ylmethyl)carbamoyl)benzyl)pyrrolidin-2-yl)methyl)picolinamide] | 112 nM | 26.3 fold | 87% | – |
| Cc1nc(-c2ccc([C@@H](O)[C@H]3CC[C@@H](Cc4ccc(C(=O)N(C)Cc5cccnc5)cc4)N3)cn2)no1 [Example 21-L, 4-(((2S,5R)-5-((R)-hydroxy(6-(5-methyl-1,2,4-oxadiazol-3-yl)pyridin-3-yl)methyl)pyrrolidin-2-yl)methyl)-N-methyl-N-(pyridin-3-ylmethyl)benzamide] | ≥ 10000 nM | >2300 fold | 3% | – |
| CN(Cc1cccnc1)C(=O)c1ccc(C[C@@H]2CC[C@H]([C@H](O)c3ccc(N)nc3)N2)cc1 [Example 21-M, 4-(((2S,5R)-5-((R)-(6-aminopyridin-3-yl)(hydroxy)methyl)pyrrolidin-2-yl)methyl)-N-methyl-N-(pyridin-3-ylmethyl)benzamide] | 20 nM | 4.7 fold | 97% | – |
| CN(Cc1cccnc1)C(=O)c1ccc(C[C@@H]2CC[C@H]([C@H](O)c3ccc(NC4CC4)nc3)N2)cc1 [Example 21-N, 4-(((2S,5R)-5-((R)-(6-(cyclopropylamino)pyridin-3-yl)(hydroxy)methyl)pyrrolidin-2-yl)methyl)-N-methyl-N-(pyridin-3-ylmethyl)benzamide] | ≥ 10000 nM | >2300 fold | 27% | – |
| CN(Cc1cccnc1)C(=O)c1ccc(C[C@@H]2CC[C@H]([C@H](O)c3ccc(C#N)nc3)N2)cc1 [Example 21-O, 4-(((2S,5R)-5-((R)-(6-cyanopyridin-3-yl)(hydroxy)methyl)pyrrolidin-2-yl)methyl)-N-methyl-N-(pyridin-3-ylmethyl)benzamide] | 274 nM | 64.3 fold | 77% | – |
| COc1ccc([C@@H](O)[C@H]2CC[C@@H](Cc3ccc(C(=O)N(C)Cc4cccnc4)cc3)N2)cn1 [Example 21-P, 4-(((2S,5R)-5-((R)-hydroxy(6-methoxypyridin-3-yl)methyl)pyrrolidin-2-yl)methyl)-N-methyl-N-(pyridin-3-ylmethyl)benzamide] | 24 nM | 5.7 fold | 93% | – |
| CN(Cc1cccnc1)C(=O)c1ccc(C[C@@H]2CC[C@H]([C@H](O)c3cncc(F)c3)N2)cc1 [Example 21-R, 4-(((2S,5R)-5-((R)-(5-fluoropyridin-3-yl)(hydroxy)methyl)pyrrolidin-2-yl)methyl)-N-methyl-N-(pyridin-3-ylmethyl)benzamide] | 57 nM | 13.3 fold | 91% | – |
| Cc1cc([C@@H](O)[C@H]2CC[C@@H](Cc3ccc(C(=O)N(C)Cc4cccnc4)cc3)N2)cnc1Cl [Example 21-S, 4-(((2S,5R)-5-((R)-(6-chloro-5-methylpyridin-3-yl)(hydroxy)methyl)pyrrolidin-2yl)methyl)-N-methyl-N-(pyridin-3-ylmethyl)benzamide] | 307 nM | 72.1 fold | 84% | – |
| CCN(Cc1cccnc1)C(=O)c1ccc(C[C@@H]2CC[C@H]([C@H](O)c3ccc(Cl)nc3)N2)cc1 [Example 22-A, 4-(((2S,5R)-5-((R)-(6-chloropyridin-3-yl)(hydroxy)methyl)pyrrolidin-2-yl)methyl)-N-ethyl-N-(pyridin-3-ylmethyl)benzamide] | 5 nM | – | 62% | – |
| CCN(Cc1cccnc1)C(=O)c1ccc(C[C@@H]2CC[C@H]([C@H](O)c3ccccc3)N2)cc1 [Example 22-B, N-ethyl-4-(((2S,5R)-5-((R)-hydroxy(phenyl)methyl)pyrrolidin-2-yl)methyl)-N-(pyridin-3-ylmethyl)benzamide] | 10 nM | 2.0 fold | 103% | – |
| CC(c1cccnc1)N(C)C(=O)c1ccc(C[C@@H]2CC[C@H]([C@H](O)c3ccc(Cl)nc3)N2)cc1 (stereo partly drawn) [Example 23-A, 4-(((2S,5R)-5-((R)-(6-chloropyridin-3-yl)(hydroxy)methyl)pyrrolidin-2-yl)methyl)-N-methyl-N-(1-(pyridin-3-yl)ethyl)benzamide] | – | – | 96% | 2 nM |
| CC(c1cccnc1)N(C)C(=O)c1ccc(C[C@@H]2CC[C@H]([C@H](O)c3ccccc3)N2)cc1 (stereo partly drawn) [Example 23-B, 4-(((2S,5R)-5-((R)-hydroxy(phenyl)methyl)pyrrolidin-2-yl)methyl)-N-methyl-N-(1-(pyridin-3-yl)ethyl)benzamide] | 3 nM | 1.5 fold | 93% | – |
| CN(C(=O)c1ccc(C[C@@H]2CC[C@H]([C@H](O)c3ccc(Cl)nc3)N2)cc1)C1CCc2ncccc21 (stereo partly drawn) [Example 24-A, 4-(((2S,5R)-5-((R)-(6-chloropyridin-3-yl)(hydroxy)methyl)pyrrolidin-2-yl)methyl)-N-(6,7-dihydro-5H-cyclopenta[b]pyridin-5-yl)-N-methylbenzamide] | 42 nM | – | 98% | – |
| CN(C(=O)c1ccc(C[C@@H]2CC[C@H]([C@H](O)c3ccccc3)N2)cc1)C1CCc2ncccc21 (stereo partly drawn) [Example 24-B, N-(6,7-dihydro-5H-cyclopenta[b]pyridin-5-yl)-4-(((2S,5R)-5-((R)-hydroxy(phenyl)methyl)pyrrolidin-2-yl)methyl)-N-methylbenzamide] | 229 nM | 5.4 fold | 106% | – |
| COc1ncccc1CN(C)C(=O)c1ccc(C[C@@H]2CC[C@H]([C@H](O)c3ccc(Cl)nc3)N2)cc1 [Example 25-A, 4-(((2S,5R)-5-((R)-(6-chloropyridin-3-yl)(hydroxy)methyl)pyrrolidin-2-yl)methyl)-N-((2-methoxypyridin-3-yl)methyl)-N-methylbenzamide] | 18 nM | – | 98% | – |
| COc1ncccc1CN(C)C(=O)c1ccc(C[C@@H]2CC[C@H]([C@H](O)c3ccccc3)N2)cc1 [Example 25-B, 4-(((2S,5R)-5-((R)-hydroxy(phenyl)methyl)pyrrolidin-2-yl)methyl)-N-((2-methoxypyridin-3-yl)methyl)-N-methylbenzamide] | 109 nM | 6.0 fold | 96% | – |
| CN(Cc1cccnc1F)C(=O)c1ccc(C[C@@H]2CC[C@H]([C@H](O)c3ccc(Cl)nc3)N2)cc1 [Example 26-A, 4-(((2S,5R)-5-((R)-(6-chloropyridin-3-yl)(hydroxy)methyl)pyrrolidin-2-yl)methyl)-N-((2-fluoropyridin-3-yl)methyl)-N-methylbenzamide] | 35 nM | – | 97% | – |
| CN(Cc1cccnc1F)C(=O)c1ccc(C[C@@H]2CC[C@H]([C@H](O)c3cccc(F)c3)N2)cc1 [Example 26-C, 4-(((2S,5R)-5-((R)-(3-fluorophenyl)(hydroxy)methyl)pyrrolidin-2-yl)methyl)-N-((2-fluoropyridin-3-yl)methyl)-N-methylbenzamide] | 143 nM | 4.1 fold | 98% | – |
| CN(Cc1cccnc1F)C(=O)c1ccc(C[C@@H]2CC[C@H]([C@H](O)c3ccc(F)cc3)N2)cc1 [Example 26-F, 4-(((2S,5R)-5-((R)-(4-fluorophenyl)(hydroxy)methyl)pyrrolidin-2-yl)methyl)-N-((2-fluoropyridin-3-yl)methyl)-N-methylbenzamide] | 136 nM | 3.9 fold | 93% | – |
| CN(Cc1cccnc1F)C(=O)c1ccc(C[C@@H]2CC[C@H]([C@H](O)c3cccnc3)N2)cc1 [Example 26-H, N-((2-fluoropyridin-3-yl)methyl)-4-(((2S,5R)-5-((R)-hydroxy(pyridin-3-yl)methyl)pyrrolidin-2-yl)methyl)-N-methylbenzamide] | 397 nM | 11.3 fold | 96% | – |
| O=C(c1ccc(C[C@@H]2CC[C@H]([C@H](O)c3ccc(Cl)nc3)N2)cc1)N(CCO)Cc1cccnc1F [Example 27-A, 4-(((2S,5R)-5-((R)-(6-chloropyridin-3-yl)(hydroxy)methyl)pyrrolidin-2-yl)methyl)-N-((2-fluoropyridin-3-yl)methyl)-N-(2-hydroxyethyl)benzamide] | 5 nM | – | 57% | – |

— US20160235727A1, “NOVEL PYRROLIDINE DERIVED BETA 3 ADRENERGIC RECEPTOR AGONISTS” (Merck Sharp & Dohme Corp., priority 2013, published 2016)
